Results taken from US9115143B2, “Substituted indole derivatives as gamma secretase modulators” (Janssen Pharmaceuticals, Inc., priority 2011, dated 2015).

Key:
Aβ42 = test: Screening for γ-secretase-modulating activity: Aβ42 in supernatant of SKNBE2 cells carrying hAPP 695 wild type (Alphalisa); format: cell-based, human; conditions: overnight incubation, Alphalisa on supernatant
Method: (§1) Pharmacology A) Screening of the Compounds of the Invention for γ-Secretase-Modulating Activity
(§2) Screening was carried out using SKNBE2 human neuroblastoma cells carrying the hAPP 695—wild type, grown in Dulbecco's Modified Eagle's Medium/Nutrient mixture F-12 (DMEM/NUT-mix F-12) (HAM) provided by Invitrogen (cat no. 10371-029) containing 5% Serum/Fe supplemented with 1% non-essential amino acids, 1-glutamine 2 mM, Hepes 15 mM, penicillin 50 U/mL (units/mL) en streptomycin 50 μg/mL. Cells were grown to near confluency.
(§3) The screening was performed using a modification of the assay as described in Citron et al (1997) Nature Medicine 3: 67. Briefly, cells were plated in a 384-well plate at 10^4 cells/well in Ultraculture (Lonza, BE12-725F) supplemented with 1% glutamine (Invitrogen, 25030-024), 1% non-essential amino acid (NEAA), penicillin 50 U/mL en streptomycin 50 μg/mL in the presence of test compound at different test concentrations. The cell/compound mixture was incubated overnight at 37° C., 5% CO2. The next day the media were assayed by two sandwich immuno-assays, for Aβ42 and Aβtotal.
(§4) Aβtotal and Aβ42 concentrations were quantified in the cell supernatant using the Aphalisa technology (Perkin Elmer). Alphalisa is a sandwich assay using biotinylated antibody attached to streptavidin coated donorbeads and antibody conjugated to acceptor beads. In the presence of antigen, the beads come into close proximity. The excitation of the donor beads provokes the release of singlet oxygen molecules that trigger a cascade of energy transfer in the acceptor beads, resulting in light emission. To quantify the amount of Aβ42 in the cell supernatant, monoclonal antibody specific to the C-terminus of Aβ42 (JRF/cAβ42/26) was coupled to the receptor beads and biotinylated antibody specific to the N-terminus of Aβ (JRF/AβN/25) was used to react with the donor beads. To quantify the amount of Aβ total in the cell supernatant, monoclonal antibody specific to the N-terminus of Aβ (JRF/AβN/25) was coupled to the receptor beads and biotinylated antibody specific to the mid region of Aβ (biotinylated 4G8) was used to react with the donor beads.
(§5) To obtain the values reported in Table 3, the data are calculated as percentage of the maximum amount of amyloid Beta 42 measured in the absence of the test compound. The sigmoidal dose response curves were analyzed using nonlinear regression analysis with percentage of the control plotted against the log concentration of the compound. A 4-parameter equation was used to determine the IC50.

Aβtotal = test: Screening for γ-secretase-modulating activity: Aβtotal in supernatant of SKNBE2 cells carrying hAPP 695 wild type (Alphalisa); format: cell-based, human; conditions: overnight incubation, Alphalisa on supernatant
Method: as §1, §2, §3, §4, §5

[1] = SKNBE2 human neuroblastoma cells carrying hAPP 695 wild type
[2] = Homo sapiens, SKNBE2, SKNBE2 human neuroblastoma cells carrying hAPP 695 wild type

Row | SMILES | IC50 (Aβ42; [1]) [nM] | IC50 (Aβtotal; [2]) [nM] | IC50 (Aβtotal; [1]) [nM] | IC50 (Aβ42; [2]) [nM]
1 | COc1c(C#N)ccc2[nH]c(-c3nc4n(n3)CCOC4c3cc(C(F)(F)F)ccc3F)cc12 (single isomer, unassigned) [Compound 160, 2-[8-[2-fluoro-5-(trifluoromethyl)phenyl]-5,6-dihydro-8H-[1,2,4]triazolo[5,1-c][1,4]oxazin-2-yl]-4-methoxy-1H-indole-5-carbonitrile] | 5130 | > 10000 |  | 
2 | COc1c(C#N)ccc2[nH]c(-c3nc4n(n3)CCOC4c3cc(C(F)(F)F)ccc3F)cc12 (single isomer, unassigned) [Compound 161, 2-[8-[2-fluoro-5-(trifluoromethyl)phenyl]-5,6-dihydro-8H-[1,2,4]triazolo[5,1-c][1,4]oxazin-2-yl]-4-methoxy-1H-indole-5-carbonitrile] | 98 |  | > 10000 | 
3 | Cc1cc(F)ccc1C1OCCn2nc(-c3cc4c(OC(C)C)c(C#N)ccc4[nH]3)nc21 (single isomer, unassigned) [Compound 172, 2-[8-(4-fluoro-2-methylphenyl)-5,6-dihydro-8H-[1,2,4]triazolo[5,1-c][1,4]oxazin-2-yl]-4-(1-methylethoxy)-1H-indole-5-carbonitrile] | > 10000 |  | > 10000 | 
4 | Cc1cc(F)ccc1C1OCCn2nc(-c3cc4c(OC(C)C)c(C#N)ccc4[nH]3)nc21 (single isomer, unassigned) [Compound 173, 2-[8-(4-fluoro-2-methylphenyl)-5,6-dihydro-8H-[1,2,4]triazolo[5,1-c][1,4]oxazin-2-yl]-4-(1-methylethoxy)-1H-indole-5-carbonitrile] | 251 | > 10000 |  | 
5 | Cc1cc(-c2ccc3[nH]c(-c4nc5n(n4)CCCC5c4ccc(F)cc4C)nc3c2)ccn1 (single isomer, unassigned) [Compound 174, 8-(4-fluoro-2-methylphenyl)-5,6,7,8-tetrahydro-2-[5-(2-methyl-4-pyridinyl)-1H-benzimidazol-2-yl]-[1,2,4]triazolo[1,5-a]pyridine] | 110 | > 10000 |  | 
6 | Cc1cc(-c2ccc3[nH]c(-c4nc5n(n4)CCCC5c4ccc(F)cc4C)nc3c2)ccn1 (single isomer, unassigned) [Compound 175, 8-(4-fluoro-2-methylphenyl)-5,6,7,8-tetrahydro-2-[5-(2-methyl-4-pyridinyl)-1H-benzimidazol-2-yl]-[1,2,4]triazolo[1,5-a]pyridine] | 28 |  | > 10000 | 
7 | Cc1cc(F)ccc1C1CCCn2nc(-c3[nH]c4ccc(C#N)cc4c3F)nc21 (single isomer, unassigned) [Compound 181, 3-fluoro-2-[8-(4-fluoro-2-methylphenyl)-5,6,7,8-tetrahydro[1,2,4]triazolo[1,5-a]pyridin-2-yl]-1H-indole-5-carbonitrile] | 5890 | > 10000 |  | 
8 | Cc1cc(-c2ccc3[nH]c(-c4nc5n(n4)CCCC5c4ccccc4C(F)(F)F)cc3c2)ccn1 (stereo not drawn) [Compound 2, 5,6,7,8-tetrahydro-2-[5-(2-methyl-4-pyridinyl)-1H-indol-2-yl]-8-[2-(trifluoromethyl)phenyl]-[1,2,4]triazolo[1,5-a]pyridine] |  | 7410 |  | 22
9 | Cc1ccc(C(F)(F)F)cc1C1CCCn2nc(-c3cc4cc(C#N)cnc4[nH]3)nc21 (stereo not drawn) [Compound 3, 2-[5,6,7,8-tetrahydro-8-[2-methyl-5-(trifluoromethyl)phenyl][1,2,4]triazolo[1,5-a]pyridin-2-yl]-1H-pyrrolo[2,3-b]pyridine-5-carbonitrile] |  | > 10000 |  | 437
10 | Cc1cc(F)ccc1C1CCCn2nc(-c3cc4cc(C#N)ccc4[nH]3)nc21 (stereo not drawn) [Compound 11, 2-[8-(4-fluoro-2-methylphenyl)-5,6,7,8-tetrahydro[1,2,4]triazolo[1,5-a]pyridin-2-yl]-1H-indole-5-carbonitrile] | 3470 |  | > 10000 | 
11 | Cc1ccccc1C1CCCn2nc(-c3cc4cc(C#N)ccc4[nH]3)nc21 (stereo not drawn) [Compound 14, 2-[5,6,7,8-tetrahydro-8-(2-methylphenyl)[1,2,4]triazolo[1,5-a]pyridin-2-yl]-1H-indole-5-carbonitrile] | 2950 |  | > 10000 | 
12 | Cc1ccccc1C1CCCn2cc(-c3cc4cc(C#N)ccc4[nH]3)nc21 (stereo not drawn) [Compound 15, 2-[5,6,7,8-tetrahydro-8-(2-methylphenyl)imidazo[1,2-a]pyridin-2-yl]-1H-indole-5-carbonitrile] |  | > 10000 |  | 89
13 | N#Cc1ccc2[nH]c(-c3cn4c(n3)C(c3ccccc3C(F)(F)F)CCC4)cc2c1 (stereo not drawn) [Compound 17, 2-[5,6,7,8-tetrahydro-8-[2-(trifluoromethyl)phenyl]imidazo[1,2-a]pyridin-2-yl]-1H-indole-5-carbonitrile] |  | > 10000 |  | 87
14 | Cc1cc(F)ccc1C1CCCn2nc(-c3cc4cc(C#N)cnc4[nH]3)nc21 (stereo not drawn) [Compound 23, 2-[8-(4-fluoro-2-methylphenyl)-5,6,7,8-tetrahydro[1,2,4]triazolo[1,5-a]pyridin-2-yl]-1H-pyrrolo[2,3-b]pyridine-5-carbonitrile] |  | > 10000 |  | 589
15 | Cc1ccccc1C1CCCn2nc(-c3cc4cc(C#N)ncc4[nH]3)nc21 (stereo not drawn) [Compound 24, 2-[5,6,7,8-tetrahydro-8-(2-methylphenyl)[1,2,4]triazolo[1,5-a]pyridin-2-yl]-1H-pyrrolo[2,3-c]pyridine-5-carbonitrile] |  | > 10000 |  | 257
16 | COc1cc2[nH]c(-c3nc4n(n3)CCCC4c3ccccc3C(F)(F)F)cc2cc1C#N (stereo not drawn) [Compound 28, 6-methoxy-2-[5,6,7,8-tetrahydro-8-[2-(trifluoromethyl)phenyl][1,2,4]triazolo[1,5-a]pyridin-2-yl]-1H-indole-5-carbonitrile] |  | > 10000 |  | 107
17 | Cc1ccc(C(F)(F)F)cc1C1OCCn2nc(-c3cc4cc(C#N)ccc4[nH]3)nc21 (stereo not drawn) [Compound 34, 2-[5,6-dihydro-8-[2-methyl-5-(trifluoromethyl)phenyl]-8H-[1,2,4]triazolo[5,1-c][1,4]oxazin-2-yl]-1H-indole-5-carbonitrile] |  | > 10000 |  | 692
18 | N#Cc1ccc2[nH]c(-c3nc4n(n3)CCOC4c3ccccc3C(F)(F)F)cc2c1 (stereo not drawn) [Compound 35, 2-[5,6-dihydro-8-[2-(trifluoromethyl)phenyl]-8H-[1,2,4]triazolo[5,1-c][1,4]oxazin-2-yl]-1H-indole-5-carbonitrile] |  | > 10000 |  | 363
19 | COc1c(C#N)ccc2[nH]c(-c3cn4c(n3)C(c3cccc(F)c3C)OCC4)cc12 (stereo not drawn) [Compound 40, 2-[8-(3-fluoro-2-methylphenyl)-5,6-dihydro-8H-imidazo[2,1-c][1,4]oxazin-2-yl]-4-methoxy-1H-indole-5-carbonitrile] | 35 | > 10000 |  | 
20 | COc1c(C#N)ccc2[nH]c(-c3cn4c(n3)C(c3cccc(F)c3C)OCC4)cc12 (stereo not drawn) [Compound 42, 2-[8-(3-fluoro-2-methylphenyl)-5,6-dihydro-8H-imidazo[2,1-c][1,4]oxazin-2-yl]-4-methoxy-1H-indole-5-carbonitrile] | 468 |  | > 10000 | 
21 | COc1c(C#N)ccc2[nH]c(-c3cn4c(n3)C(c3ccccc3Cl)OCC4)cc12 (stereo not drawn) [Compound 49, 2-[8-(2-chlorophenyl)-5,6-dihydro-8H-imidazo[2,1-c][1,4]oxazin-2-yl]-4-methoxy-1H-indole-5-carbonitrile] | 58 | > 10000 |  | 
